Series [1] has as its system bicistronic HCV replicon (replicon RNA, GenBank Accession No. AJ242654). The series can be described thus: HCV Replicon Assay. The format is cell-based. The settings on record: Hepatitis C virus, 72 h, read-out: Replicon IC50.

With `Cc1cc2c(cc1F)c(C#N)c(-c1ccc(S(=O)(=O)N[C@@H](C)C(F)(F)F)cn1)n2-c1ccc(C#N)s1` [compound 1033, 6-[3-cyano-1-(5-cyanothiophen-2-yl)-5-fluoro-6-methyl-1H-indol-2-yl]-N-[(2S)-1,1,1-trifluoropropan-2-yl]pyridine-3-sulfonamide], the melting point is 182 to 184.6 °C. Besides, the IC50 in series [1] is under 500 nM.
On the same counts, the results for `Cc1cc2c(cc1F)c(C#N)c(-c1ccc(S(=O)(=O)N[C@@H](C)C(F)(F)F)cn1)n2-c1ccc(S(N)(=O)=O)s1` [compound 1034, 6-[3-cyano-5-fluoro-6-methyl-1-(5-sulfamoylthiophen-2-yl)-1H-indol-2-yl]-N-[(2S)-1,1,1-trifluoropropan-2-yl]pyridine-3-sulfonamide] are 131.6 to 137.7 °C and 500 to 2000 nM.
In the case of `CC(=O)c1ccc(-n2c(-c3ccc(S(=O)(=O)N[C@@H](C)C(F)(F)F)cn3)c(C#N)c3cc(F)c(C)cc32)s1` [compound 1035, 6-[1-(5-acetylthiophen-2-yl)-3-cyano-5-fluoro-6-methyl-1H-indol-2-yl]-N-[(2S)-1,1,1-trifluoropropan-2-yl]pyridine-3-sulfonamide], the melting point lay within 235.6 to 238.7 °C. The IC50 in series [1] is 500 to 2000 nM.
Consider `CCc1cc2c(cc1F)c(C(N)=O)c(-c1cnc(NS(=O)(=O)C(C)(C)C)nc1)n2C1CCCCC1` [compound 1036, 2-{2-[(tert-butylsulfonyl)amino]pyrimidin-5-yl}-1-cyclohexyl-6-ethyl-5-fluoro-1H-indole-3-carboxamide], for which the melting point was over 300 °C. For the same compound, the IC50 in series [1] was 2000 to 5000 nM.
`CCc1cc2c(cc1F)c(C(N)=O)c(-c1ccc(NS(=O)(=O)C(C)(C)C)nc1)n2C1CCCCC1` [compound 1037, 2-{6-[(tert-butylsulfonyl)amino]pyridin-3-yl}-1-cyclohexyl-6-ethyl-5-fluoro-1H-indole-3-carboxamide] displayed a melting point of 297 to 299 °C. For the same compound, the IC50 in series [1] was under 500 nM.
The matching figures for `Cc1csc(-n2c(-c3ccc(S(=O)(=O)N[C@@H](C)C(F)(F)F)cn3)c(C#N)c3cc(F)c(C)cc32)n1` [compound 1038, 6-[3-cyano-5-fluoro-6-methyl-1-(4-methyl-1,3-thiazol-2-yl)-1H-indol-2-yl]-N-[(2S)-1,1,1-trifluoropropan-2-yl]pyridine-3-sulfonamide]: 206.3 to 211.7 °C and under 500 nM.
As to `CCc1cc2c(cc1F)c(C(N)=O)c(-c1ccc(S(=O)(=O)N[C@@H](C)C(F)(F)F)cn1)n2-c1ccncc1` [compound 1045, 6-ethyl-5-fluoro-1-(pyridin-4-yl)-2-(5-{[(2S)-1,1,1-trifluoropropan-2-yl]sulfamoyl}pyridin-2-yl)-1H-indole-3-carboxamide], the melting point fell in the range of 219 to 224 °C. Besides, in series [1], the half-maximal inhibitory concentration (IC50) is under 500 nM.
Consider `CCc1cc2c(cc1F)c(C(N)=O)c(-c1ccc(S(=O)(=O)N[C@@H](C)C(F)(F)F)cn1)n2-c1cccnn1` [compound 1046, 6-ethyl-5-fluoro-1-(pyridazin-3-yl)-2-(5-{[(2S)-1,1,1-trifluoropropan-2-yl]sulfamoyl}pyridin-2-yl)-1H-indole-3-carboxamide], for which the melting point lay within 206 to 212 °C. Moreover, the IC50 in series [1] fell in the range of 2000 to 5000 nM.
The matching figures for `CCc1cc2c(cc1F)c(C(N)=O)c(-c1ccc(S(=O)(=O)N[C@@H](C)C(F)(F)F)cn1)n2-c1ncc(C)cn1` [compound 1047, 6-ethyl-5-fluoro-1-(5-methylpyrimidin-2-yl)-2-(5-{[(2S)-1,1,1-trifluoropropan-2-yl]sulfamoyl}pyridin-2-yl)-1H-indole-3-carboxamide]: 257 to 261 °C and 500 to 2000 nM.
`CCc1cc2c(cc1F)c(C(N)=O)c(-c1ccc(S(=O)(=O)N[C@@H](C)C(F)(F)F)cn1)n2-c1cc(Cl)ccn1` [compound 1048, 1-(4-chloropyridin-2-yl)-6-ethyl-5-fluoro-2-(5-{[(2S)-1,1,1-trifluoropropan-2-yl]sulfamoyl}pyridin-2-yl)-1H-indole-3-carboxamide]: the melting point lay in the range of 200 to 204 °C. For the same compound, the IC50 in series [1] was 500 to 2000 nM.
`CC(=O)c1sccc1-n1c(-c2ccc(S(=O)(=O)N[C@@H](C)C(F)(F)F)cn2)c(C#N)c2cc(F)c(C)cc21` [compound 1055, 6-[1-(2-acetylthiophen-3-yl)-3-cyano-5-fluoro-6-methyl-1H-indol-2-yl]-N-[(2S)-1,1,1-trifluoropropan-2-yl]pyridine-3-sulfonamide] registered a melting point of 208.7 to 212.4 °C. Moreover, the IC50 in series [1] was 500 to 2000 nM.
As for `Cc1cc2c(cc1F)c(C#N)c(-c1ccc(S(=O)(=O)N[C@@H](C)C(F)(F)F)cn1)n2-c1cscc1C` [compound 1056, 6-[3-cyano-5-fluoro-6-methyl-1-(4-methylthiophen-3-yl)-1H-indol-2-yl]-N-[(2S)-1,1,1-trifluoropropan-2-yl]pyridine-3-sulfonamide], the melting point fell in the range of 223.2 to 227.1 °C. Further, the IC50 in series [1] was under 500 nM.
The matching figures for `Cc1cc2c(cc1F)c(C#N)c(-c1ccc(S(=O)(=O)N[C@@H](C)C(F)(F)F)cn1)n2-c1ccsc1Cl` [compound 1057, 6-[1-(2-chlorothiophen-3-yl)-3-cyano-5-fluoro-6-methyl-1H-indol-2-yl]-N-[(2S)-1,1,1-trifluoropropan-2-yl]pyridine-3-sulfonamide]: 226.7 to 231.8 °C and under 500 nM.
On the same counts, the results for `Cc1cc(-n2c(-c3ccc(S(=O)(=O)N[C@@H](C)C(F)(F)F)cn3)c(C#N)c3cc(F)c(C)cc32)cs1` [compound 1058, 6-[3-cyano-5-fluoro-6-methyl-1-(5-methylthiophen-3-yl)-1H-indol-2-yl]-N-[(2S)-1,1,1-trifluoropropan-2-yl]pyridine-3-sulfonamide] are 210.5 to 215.2 °C and under 500 nM.
For `CCc1cc2c(cc1F)c(C#N)c(-c1ccc(S(=O)(=O)N[C@@H](C)C(F)(F)F)cn1)n2-c1ccc(F)c(F)c1` [compound 1061, 6-[3-cyano-1-(3,4-difluorophenyl)-6-ethyl-5-fluoro-1H-indol-2-yl]-N-[(2S)-1,1,1-trifluoropropan-2-yl]pyridine-3-sulfonamide], the melting point lay in the range of 229 to 235 °C. Besides, the IC50 in series [1] was under 500 nM.
On the same counts, the results for `CCc1cc2c(cc1F)c(C#N)c(-c1ccc(S(=O)(=O)N[C@@H](C)C(F)(F)F)cn1)n2-c1ccc(F)c(Cl)c1` [compound 1062, 6-[1-(3-chloro-4-fluorophenyl)-3-cyano-6-ethyl-5-fluoro-1H-indol-2-yl]-N-[(2S)-1,1,1-trifluoropropan-2-yl]pyridine-3-sulfonamide] are 228 to 232 °C and under 500 nM.
Consider `CC(C)(C)S(=O)(=O)Nc1ccc(-c2c(C(N)=O)c3cc(F)c(OC(F)F)cc3n2C2CCCCC2)cn1` [compound 1063, 2-{6-[(tert-butylsulfonyl)amino]pyridin-3-yl}-1-cyclohexyl-6-(difluoromethoxy)-5-fluoro-1H-indole-3-carboxamide], for which the melting point fell in the range of 296 to 297 °C. Further, in series [1], the IC50 was under 500 nM.
For the compound `CC(C)(C)S(=O)(=O)Nc1ccc(-c2c(C#N)c3cc(F)c(OC(F)F)cc3n2C2CCCCC2)cn1` [compound 1065, N-{5-[3-cyano-1-cyclohexyl-6-(difluoromethoxy)-5-fluoro-1H-indol-2-yl]pyridin-2-yl}-2-methylpropane-2-sulfonamide], the melting point fell in the range of 278 to 280 °C. In addition, in series [1], the IC50 was under 500 nM.
On the same counts, the results for `Cc1cc2c(cc1F)c(C#N)c(-c1ccc(S(=O)(=O)N[C@@H](C)C(F)(F)F)cn1)n2-c1occc1C#N` [compound 1072, 6-[3-cyano-1-(3-cyanofuran-2-yl)-5-fluoro-6-methyl-1H-indol-2-yl]-N-[(2S)-1,1,1-trifluoropropan-2-yl]pyridine-3-sulfonamide] are 238 to 243.6 °C and 500 to 2000 nM.
Compound `Cc1cc2c(cc1F)c(C#N)c(-c1ccc(S(=O)(=O)N[C@@H](C)C(F)(F)F)cn1)n2-c1nc(C#N)co1` [compound 1074, 6-[3-cyano-1-(4-cyano-1,3-oxazol-2-yl)-5-fluoro-6-methyl-1H-indol-2-yl]-N-[(2S)-1,1,1-trifluoropropan-2-yl]pyridine-3-sulfonamide] registered a melting point of 212.2 to 216.9 °C. Moreover, the IC50 in series [1] is under 500 nM.
On the same counts, the results for `C[C@@H](C1CC1)n1c(-c2ccc(NS(=O)(=O)C(C)(C)C)nc2)c(C(N)=O)c2cc(F)c(OC(F)F)cc21` [compound 1081, 2-{6-[(tert-butylsulfonyl)amino]pyridin-3-yl}-1-[(1S)-1-cyclopropylethyl]-6-(difluoromethoxy)-5-fluoro-1H-indole-3-carboxamide] are 239 to 241 °C and under 500 nM.
On the same counts, the results for `CCc1cc2c(cc1F)c(C(N)=O)c(-c1ccc(NS(=O)(=O)C(C)(C)C)nc1)n2[C@@H](C)C1CC1` [compound 1083, 2-{6-[(tert-butylsulfonyl)amino]pyridin-3-yl}-1-[(1S)-1-cyclopropylethyl]-6-ethyl-5-fluoro-1H-indole-3-carboxamide] are 256 to 259 °C and under 500 nM.
As for `C[C@H](C1CC1)n1c(-c2ccc(NS(=O)(=O)C(C)(C)C)nc2)c(C(N)=O)c2cc(F)c(OC(F)F)cc21` [compound 1085, 2-{6-[(tert-butylsulfonyl)amino]pyridin-3-yl}-1-[(1R)-1-cyclopropylethyl]-6-(difluoromethoxy)-5-fluoro-1H-indole-3-carboxamide], the melting point was in the range of 228 to 230 °C. Moreover, the IC50 in series [1] is under 500 nM.
For the compound `Cc1cc(NS(=O)(=O)C(C)(C)C)ncc1-c1c(C(N)=O)c2cc(F)c(OC(F)F)cc2n1[C@H](C)C1CC1` [compound 1087, 2-{6-[(tert-butylsulfonyl)amino]-4-methylpyridin-3-yl}-1-[(1R)-1-cyclopropylethyl]-6-(difluoromethoxy)-5-fluoro-1H-indole-3-carboxamide], the melting point lay in the range of 250 to 254 °C. Further, the IC50 in series [1] is under 500 nM.

The term IC50 denotes the point on the concentration scale where inhibition reaches its midpoint. The term melting point denotes the temperature of the solid-liquid transition.
